Laboratory results from patent publication US20240076293A1, “Compositions and Methods for Inhibiting Fibrosis, Inflammation and Cancer” (Georgia Tech Research Corporation, priority 2020, published 2024).
Where two headings read alike, the source gives them in different places.

How the values were obtained:
Format in all cases: cell-based
[1] = tested on: MRC-5; assay: Anti-proliferation IC50, MRC-5; details: Homo sapiens, MRC5; Table 2, compounds of formula II
[2] = tested on: A549; assay: Anti-proliferation IC50, A549; details: Homo sapiens
[3] = tested on: Hep-G2; assay: Anti-proliferation IC50, Hep-G2; details: Homo sapiens, HepG2
[4] = tested on: VERO; assay: Anti-proliferation IC50, VERO; details: Chlorocebus sabaeus
[5] = tested on: MDA-MB-231; assay: Anti-proliferation IC50, MDA-MB-231; details: Homo sapiens, Anti-proliferation IC50 for the new compounds, read-out: MDA-MB-231 (IC50 μM)
[6] = Anti-proliferation IC50, MRC-5; details: human, MRC-5 cells; Table 1, compounds of formula I; NI = no inhibition up to 500 μM
[7] = Table 2, compounds of formula II, read-out: Anti-proliferation IC50 A549
[8] = Table 2, compounds of formula II, read-out: Anti-proliferation IC50 Hep-G2
[9] = Table 2, compounds of formula II, read-out: Anti-proliferation IC50 VERO
[10] = Table 1, compounds of formula I, NI = no inhibition up to 500 μM, read-out: A549 (IC50)
[11] = Table 1, compounds of formula I, NI = no inhibition up to 500 μM, read-out: Hep-G2 (IC50)
[12] = Table 1, compounds of formula I, NI = no inhibition up to 500 μM, read-out: VERO (IC50)

Row | IC50 [2, 7] [µM] | IC50 [3, 8] [µM] | Structure (SMILES) | IC50 [1] [µM] | IC50 [4, 9] [µM] | further results
1 | 92.9 ± 13 | 157 ± 11.4 | CC[C@@H]1OC(=O)[C@@H](C)[C@H](O)[C@@H](C)[C@H](O[C@H]2O[C@@H](C)C[C@@H](N(C)Cc3ccc(-c4cn(CCCNC(=O)CCCC[C@H]5CCSS5)nn4)cc3)[C@@H]2O)C(C)(O)C[C@H](C)CN(C)[C@@H](C)[C@H](O)[C@@]1(C)O (stereo partly drawn) | 145 ± 3.5 | 168 ± 19.7 | 
2 | 31.2 ± 4.8 | 24.8 ± 1.7 | CC[C@H]1OC(=O)[C@H](C)[C@@H](O[C@H]2C[C@@](C)(OC)[C@@H](O)[C@H](C)O2)[C@H](C)[C@@H](O[C@@H]2O[C@H](C)C[C@H](N(C)CCC#Cc3ccc(-n4cc(C)ccc4=O)cc3)[C@H]2O)[C@](C)(O)C[C@@H](C)CN(C)[C@H](C)[C@@H](O)[C@]1(C)O [Compound 20b] | 19.1 ± 2.6 | 28.5 ± 1.8 | 
3 | 55.9 ± 6.4 | 53.4 ± 3.3 | CC[C@H]1OC(=O)[C@H](C)[C@@H](O[C@H]2C[C@@](C)(OC)[C@@H](O)[C@H](C)O2)[C@H](C)[C@@H](O[C@@H]2O[C@H](C)C[C@H](N(C)CC#Cc3ccc(-n4cc(C)ccc4=O)cc3)[C@H]2O)[C@](C)(O)C[C@@H](C)CN(C)[C@H](C)[C@@H](O)[C@]1(C)O [Compound 20a] | 23.3 ± 3.3 | 71.4 ± 6.3 | 
4 | 18.4 ± 4.4 | 11.1 ± 0.3 | CC[C@H]1OC(=O)[C@H](C)[C@@H](O[C@H]2C[C@@](C)(OC)[C@@H](O)[C@H](C)O2)[C@H](C)[C@@H](O[C@@H]2O[C@H](C)C[C@H](N(C)Cc3ccc(-c4cn(Cc5ccc(-n6cc(C)ccc6=O)cc5)nn4)cc3)[C@H]2O)[C@](C)(O)C[C@@H](C)CN(C)[C@H](C)[C@@H](O)[C@]1(C)O [Compound 11c] | 13.4 ± 0.1 | 16.2 ± 2.8 | 
5 | 27.4 ± 0.5 | 14.8 ± 2.1 | CC[C@@H]1OC(=O)[C@@H](C)[C@H](O)[C@@H](C)[C@H](O[C@H]2O[C@@H](C)C[C@@H](N(C)Cc3ccc(-c4cn(CCNC(=O)CCCC[C@H]5CCSS5)nn4)cc3)[C@@H]2O)C(C)(O)C[C@H](C)CN(C)[C@@H](C)[C@H](O)[C@@]1(C)O (stereo partly drawn) | 17.9 ± 0.5 | 47.7 ± 6.2 | 
6 | 47.2 ± 5.1 | 33 ± 5.4 | CC[C@H]1OC(=O)[C@H](C)[C@@H](O[C@H]2C[C@@](C)(OC)[C@@H](O)[C@H](C)O2)[C@H](C)[C@@H](O[C@@H]2O[C@H](C)C[C@H](N(C)Cc3ccc(-n4cc(C)ccc4=O)cc3)[C@H]2O)[C@](C)(O)C[C@@H](C)CN(C)[C@H](C)[C@@H](O)[C@]1(C)O [Compound 11a] | 55.8 ± 1.9 | 47.2 ± 0.4 | 
7 | 6.1 ± 0.3 | 2.8 | CC[C@H]1OC(=O)[C@H](C)[C@@H](O[C@H]2C[C@@](C)(OC)[C@@H](O)[C@H](C)O2)[C@H](C)[C@@H](O[C@@H]2O[C@H](C)C[C@H](N(C)CCCCCC#Cc3ccc(-n4cc(C)ccc4=O)cc3)[C@H]2O)[C@](C)(O)C[C@@H](C)CN(C)[C@H](C)[C@@H](O)[C@]1(C)O [Compound 20e] | 2.2 ± 0.1 | 4.7 ± 0.3 | 
8 | 40.8 ± 4 | 27.2 ± 2.3 | CC[C@H]1OC(=O)[C@H](C)[C@@H](O[C@H]2C[C@@](C)(OC)[C@@H](O)[C@H](C)O2)[C@H](C)[C@@H](O[C@@H]2O[C@H](C)C[C@H](N(C)CCc3ccc(-n4cc(C)ccc4=O)cc3)[C@H]2O)[C@](C)(O)C[C@@H](C)CN(C)[C@H](C)[C@@H](O)[C@]1(C)O [Compound 13a] | 36.1 ± 3.3 | 30.3 ± 5.2 | 
9 | 265 ± 4 | 234 ± 31.1 | CC[C@H]1OC(=O)[C@H](C)[C@@H](O[C@H]2C[C@@](C)(OC)[C@@H](O)[C@H](C)O2)[C@H](C)[C@@H](O[C@@H]2O[C@H](C)C[C@H](N(C)Cc3cn(Cc4ccc(-n5cc(C)ccc5=O)cc4)nn3)[C@H]2O)[C@](C)(O)C[C@@H](C)CN(C)[C@H](C)[C@@H](O)[C@]1(C)O [Compound 11b] | 121 ± 14.1 | 122 ± 19.4 | 
10 | 19.6 ± 1.8 | 10.2 ± 1.9 | CC[C@@H]1OC(=O)[C@@H](C)[C@H](O[C@H]2C[C@@](C)(OC)[C@@H](O)[C@H](C)O2)C(C)[C@H](O[C@H]2O[C@@H](C)C[C@@H](N(C)C(=O)/C=C/C=C/c3ccc4c(c3)OCO4)[C@@H]2O)C(C)(O)C[C@H](C)CN(C)[C@@H](C)[C@H](O)[C@@]1(C)O (stereo partly drawn) | 11.4 ± 0.4 | 12.9 | 
11 | 144 ± 24.5 | 163.4 ± 1.6 | CC[C@H]1OC(=O)[C@H](C)[C@@H](O[C@H]2C[C@@](C)(OC)[C@@H](O)[C@H](C)O2)[C@H](C)[C@@H](O[C@@H]2O[C@H](C)C[C@H](N(C)Cc3cn(CCc4ccc(-n5cc(C)ccc5=O)cc4)nn3)[C@H]2O)[C@](C)(O)C[C@@H](C)CN(C)[C@H](C)[C@@H](O)[C@]1(C)O [Compound 13b] | 172 ± 26.9 | 151 ± 30.6 | 
12 | 35.2 ± 5.4 | 27.7 ± 3.3 | CC[C@H]1OC(=O)[C@H](C)[C@@H](O[C@H]2C[C@@](C)(OC)[C@@H](O)[C@H](C)O2)[C@H](C)[C@@H](O[C@@H]2O[C@H](C)C[C@H](N(C)Cc3cn(CCCCc4ccc(-n5cc(C)ccc5=O)cc4)nn3)[C@H]2O)[C@](C)(O)C[C@@H](C)CN(C)[C@H](C)[C@@H](O)[C@]1(C)O [Compound 15b] | 36.1 ± 6.1 | 53.2 ± 0.1 | 
13 | 15.5 ± 1.1 | 12.7 ± 1.3 | CC[C@H]1OC(=O)[C@H](C)[C@@H](O[C@H]2C[C@@](C)(OC)[C@@H](O)[C@H](C)O2)[C@H](C)[C@@H](O[C@@H]2O[C@H](C)C[C@H](N(C)CCCCC#Cc3ccc(-n4cc(C)ccc4=O)cc3)[C@H]2O)[C@](C)(O)C[C@@H](C)CN(C)[C@H](C)[C@@H](O)[C@]1(C)O [Compound 20d] | 5.5 ± 0.2 | 16.2 ± 3.1 | 
14 |  |  | CC[C@H]1OC(=O)[C@H](C)[C@@H](O[C@H]2C[C@@](C)(OC)[C@@H](O)[C@H](C)O2)[C@H](C)[C@@H](O[C@@H]2O[C@H](C)C[C@H](N(C)C)C2OC(=O)CCCCC(CCSCc2ccccc2)SCc2ccccc2)[C@](C)(O)C[C@@H](C)CN(C)[C@H](C)[C@@H](O)[C@]1(C)O (stereo partly drawn) [AO-03-032] |  |  | IC50 ([2]; Anti-proliferation IC50 for the new compounds, read-out: A549 (IC50 μM)): 7.6 µM; IC50 ([3]; Anti-proliferation IC50 for the new compounds, read-out: Hep-G2 (IC50 μM)): 4.2 µM; IC50 ([4]; Anti-proliferation IC50 for the new compounds, read-out: VERO (IC50 μM)): 10.4 µM; IC50 [5]: 6.4 µM
15 | 42.7 ± 8.4 | 45.2 ± 7.4 | CC[C@H]1OC(=O)[C@H](C)[C@@H](O[C@H]2C[C@@](C)(OC)[C@@H](O)[C@H](C)O2)[C@H](C)[C@@H](O[C@@H]2O[C@H](C)C[C@H](N(C)CCCC#Cc3ccc(-n4cc(C)ccc4=O)cc3)[C@H]2O)[C@](C)(O)C[C@@H](C)CN(C)[C@H](C)[C@@H](O)[C@]1(C)O [Compound 20c] | 41.7 ± 0.1 | 36.4 ± 3.8 | 
16 | 15.8 ± 3 | 21.8 ± 0.4 | CC[C@H]1OC(=O)[C@H](C)[C@@H](O[C@H]2C[C@@](C)(OC)[C@@H](O)[C@H](C)O2)[C@H](C)[C@@H](O[C@@H]2O[C@H](C)C[C@H](N(C)Cc3ccc(-c4cn(CCc5ccc(-n6cc(C)ccc6=O)cc5)nn4)cc3)[C@H]2O)[C@](C)(O)C[C@@H](C)CN(C)[C@H](C)[C@@H](O)[C@]1(C)O [Compound 13c] | 13.3 ± 0.9 | 22.6 ± 4.9 | 
17 | 15.6 ± 2.6 | 5 ± 0.5 | CC[C@@H]1OC(=O)[C@@H](C)[C@H](O[C@H]2C[C@@](C)(OC)[C@@H](O)[C@H](C)O2)[C@@H](C)[C@H](O[C@H]2O[C@@H](C)C[C@@H](N(C)C)[C@@H]2OC(=O)/C=C/C=C/c2ccc3c(c2)OCO3)C(C)(O)C[C@H](C)CN(C)[C@@H](C)[C@H](O)[C@@]1(C)O (stereo partly drawn) | 3.8 ± 0.8 | 13.2 ± 1.5 | 
18 | 5 ± 0.2 | 2.6 ± 0.1 | CC[C@H]1OC(=O)[C@H](C)[C@@H](O[C@H]2C[C@@](C)(OC)[C@@H](O)[C@H](C)O2)[C@H](C)[C@@H](O[C@@H]2O[C@H](C)C[C@H](N(C)Cc3ccc(-c4cn(CCCCc5ccc(-n6cc(C)ccc6=O)cc5)nn4)cc3)[C@H]2O)[C@](C)(O)C[C@@H](C)CN(C)[C@H](C)[C@@H](O)[C@]1(C)O [Compound 15c] | 5.7 ± 0.1 | 5.9 ± 0.1 | 
19 | 43.2 ± 5.7 | 52.2 ± 1 | CC[C@H]1OC(=O)[C@H](C)[C@@H](O[C@H]2C[C@@](C)(OC)[C@@H](O)[C@H](C)O2)[C@H](C)[C@@H](O[C@@H]2O[C@H](C)C[C@H](N(C)CCCCc3ccc(-n4cc(C)ccc4=O)cc3)[C@H]2O)[C@](C)(O)C[C@@H](C)CN(C)[C@H](C)[C@@H](O)[C@]1(C)O [Compound 15a] | 5.9 ± 0.1 | 23.9 ± 1.7 | 
20 |  |  | CCC1OC(=O)[C@H](C)[C@H](OC2C[C@@](C)(OC)[C@@H](O)[C@H](C)O2)[C@H](C)[C@@H](OC2O[C@H](C)C[C@H](N(C)Cc3ccc(-n4cc(C)ccc4=O)cc3)[C@H]2O)[C@@](C)(OC)C[C@@H](C)C(=O)[C@H](C)[C@@H](O)[C@]1(C)O (stereo partly drawn) [Compound 10a] |  |  | IC50 [6]: > 500 µM; IC50 [2, 10]: > 500 µM; IC50 [3, 11]: > 500 µM; IC50 [4, 12]: > 500 µM
21 |  |  | CCC1OC(=O)[C@H](C)[C@H](OC2C[C@@](C)(OC)[C@@H](O)[C@H](C)O2)[C@H](C)[C@@H](OC2O[C@H](C)C[C@H](N(C)Cc3ccc(-c4cn(Cc5ccc(-n6cc(C)ccc6=O)cc5)nn4)cc3)[C@H]2O)[C@@](C)(OC)C[C@@H](C)C(=O)[C@H](C)[C@@H](O)[C@]1(C)O (stereo partly drawn) [Compound 10c] |  |  | IC50 [6]: 12.3 ± 1.8 µM; IC50 [2, 10]: 11.1 ± 2.7 µM; IC50 [3, 11]: 20.3 ± 1 µM; IC50 [4, 12]: 5.1 ± 0.2 µM
